Columns and labels:
[1] = biological target: T1, Amine oxidase [flavin-containing] A (Homo sapiens, UniProt P21397); test: DRUGMATRIX: Monoamine Oxidase MAO-A enzyme inhibition (substrate: Kynuramine); set-up: species or system BTI-TN-5B1-4; settings: Not Active = under 50% inhibition at 10 µM
T1 sequence (P21397 whole entry): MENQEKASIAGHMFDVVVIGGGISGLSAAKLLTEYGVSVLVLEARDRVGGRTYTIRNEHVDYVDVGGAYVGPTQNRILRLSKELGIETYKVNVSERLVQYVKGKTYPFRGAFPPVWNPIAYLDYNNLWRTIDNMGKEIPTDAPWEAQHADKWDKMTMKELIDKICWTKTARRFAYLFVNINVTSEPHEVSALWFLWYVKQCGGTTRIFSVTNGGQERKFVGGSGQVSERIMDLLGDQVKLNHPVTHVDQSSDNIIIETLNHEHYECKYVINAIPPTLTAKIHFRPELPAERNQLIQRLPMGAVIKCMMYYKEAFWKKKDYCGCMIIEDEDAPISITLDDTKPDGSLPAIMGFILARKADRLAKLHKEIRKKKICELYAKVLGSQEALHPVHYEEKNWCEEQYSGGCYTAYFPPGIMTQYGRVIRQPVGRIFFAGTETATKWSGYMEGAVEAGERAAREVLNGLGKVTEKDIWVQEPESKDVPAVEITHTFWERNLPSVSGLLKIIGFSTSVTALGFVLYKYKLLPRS

[2] = biological target: T2, Alpha-2C adrenergic receptor (Homo sapiens, UniProt P18825); test: DRUGMATRIX: Adrenergic Alpha-2C radioligand binding (ligand: [3H] MK-912); format: cell membranes, Sf9, Membrane; settings: sf9
T2 sequence (P18825 whole entry): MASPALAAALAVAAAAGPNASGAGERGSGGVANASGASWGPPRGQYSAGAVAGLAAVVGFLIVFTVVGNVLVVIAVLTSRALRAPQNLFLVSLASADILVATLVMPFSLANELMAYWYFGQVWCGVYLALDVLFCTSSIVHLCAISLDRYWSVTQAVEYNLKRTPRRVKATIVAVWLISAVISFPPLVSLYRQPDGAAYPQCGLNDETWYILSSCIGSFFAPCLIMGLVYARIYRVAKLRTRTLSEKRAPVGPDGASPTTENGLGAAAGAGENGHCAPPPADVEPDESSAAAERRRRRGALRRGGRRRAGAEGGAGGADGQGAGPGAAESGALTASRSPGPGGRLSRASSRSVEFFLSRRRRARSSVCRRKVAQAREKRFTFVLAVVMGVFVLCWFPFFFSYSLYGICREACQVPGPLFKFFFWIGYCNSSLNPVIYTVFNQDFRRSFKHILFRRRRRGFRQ

[3] = DRUGMATRIX: Tumor Necrosis Factor (TNF), Non-Selective radioligand binding (ligand: [125I] TNF-alpha); format: cell membranes, Membrane; settings: u-937; Not Active = under 50% inhibition at 10 µM
[4] = biological target: T3, Alpha-1A adrenergic receptor (Rattus norvegicus, UniProt P43140); test: DRUGMATRIX: Alpha-1A adrenergic receptor radioligand binding (ligand: prazosin); format: cell membranes, Wistar, Submaxillary gland, Membrane; settings: Not Active = under 50% inhibition at 10 µM
T3 sequence (P43140 whole entry): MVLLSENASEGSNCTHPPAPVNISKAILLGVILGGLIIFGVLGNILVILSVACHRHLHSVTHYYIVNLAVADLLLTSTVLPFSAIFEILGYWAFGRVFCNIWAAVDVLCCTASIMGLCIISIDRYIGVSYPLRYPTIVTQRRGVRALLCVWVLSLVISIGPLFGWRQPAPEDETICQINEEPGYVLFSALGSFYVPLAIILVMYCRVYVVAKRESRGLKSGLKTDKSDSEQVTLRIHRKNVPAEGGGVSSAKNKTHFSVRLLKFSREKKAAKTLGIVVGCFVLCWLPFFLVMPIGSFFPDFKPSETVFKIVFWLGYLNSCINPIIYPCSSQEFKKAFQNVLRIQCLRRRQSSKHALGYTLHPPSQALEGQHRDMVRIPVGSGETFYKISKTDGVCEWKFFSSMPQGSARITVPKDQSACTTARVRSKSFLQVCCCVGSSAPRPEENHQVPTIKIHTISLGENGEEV

Adenosine receptor A3 = biological target: T4, Adenosine receptor A3 (Homo sapiens, UniProt P0DMS8); format: cell membranes, CHO-K1, Membrane; settings: cho-k1;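 note: radioligand binding assay with AB-MECA serving as the labeled ligand; in other assays of this panel Not Active means under 50% inhibition at 10 µM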
T4 sequence (P0DMS8 whole entry): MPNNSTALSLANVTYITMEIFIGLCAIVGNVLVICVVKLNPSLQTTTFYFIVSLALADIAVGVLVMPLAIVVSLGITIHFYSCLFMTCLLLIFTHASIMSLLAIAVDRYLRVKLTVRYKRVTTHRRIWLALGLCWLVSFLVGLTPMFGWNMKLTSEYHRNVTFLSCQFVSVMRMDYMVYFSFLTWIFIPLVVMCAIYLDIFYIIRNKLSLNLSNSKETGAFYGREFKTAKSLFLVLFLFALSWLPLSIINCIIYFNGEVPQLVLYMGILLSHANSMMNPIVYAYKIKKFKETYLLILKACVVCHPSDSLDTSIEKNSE

[5] = DRUGMATRIX: Leukotriene, BLT (LTB4) radioligand binding (ligand: [3H]LTB4); format: cell membranes, Membrane; settings: u-937; Not Active = under 50% inhibition at 10 µM
Vasopressin V1a receptor = Vasopressin V1a receptor (Homo sapiens, UniProt P37288); format: cell membranes, Membrane; settings: hek293; note: in other assays of this panel Not Active means under 50% inhibition at 10 µM
Sequence of Vasopressin V1a receptor (P37288 whole entry): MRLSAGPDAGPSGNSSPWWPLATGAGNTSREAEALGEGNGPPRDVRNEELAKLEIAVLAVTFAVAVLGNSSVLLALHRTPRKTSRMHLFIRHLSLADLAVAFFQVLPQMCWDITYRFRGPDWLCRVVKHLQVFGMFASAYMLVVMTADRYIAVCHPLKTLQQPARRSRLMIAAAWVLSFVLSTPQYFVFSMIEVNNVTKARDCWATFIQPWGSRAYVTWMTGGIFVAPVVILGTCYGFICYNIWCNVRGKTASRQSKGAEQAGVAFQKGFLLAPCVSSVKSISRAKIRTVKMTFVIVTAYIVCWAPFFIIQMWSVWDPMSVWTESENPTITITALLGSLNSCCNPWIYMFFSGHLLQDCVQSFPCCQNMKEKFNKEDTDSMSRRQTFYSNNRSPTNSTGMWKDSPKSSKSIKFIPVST

## O=C(C1CCCCC1)N1CC(=O)N2CCc3ccccc3C2C1 (stereo unspecified) [PRAZIQUANTEL]
[1]; bti-tn-5b1-4
  IC50: Not Active
[2]
  IC50: Not Active
[3]
  IC50: Not Active
  Ki: Not Active
[4]
  IC50: Not Active
Adenosine receptor A3
  IC50: Not Active
[5]
  IC50: Not Active
  Ki: Not Active
Vasopressin V1a receptor
  IC50: Not Active

## CCN(CC)CCOC(=O)c1ccc(N)cc1 [PROCAINE]
[1]; bti-tn-5b1-4
  IC50: Not Active
[2]
  IC50: Not Active
[3]
  IC50: Not Active
  Ki: Not Active
[4]
  IC50: Not Active
Adenosine receptor A3
  IC50: Not Active
[5]
  IC50: Not Active
  Ki: Not Active
Vasopressin V1a receptor
  IC50: Not Active

## CCCN(CCC)C(=O)C(CCC(=O)O)NC(=O)c1ccccc1 (stereo unspecified) [PROGLUMIDE]
[1]; bti-tn-5b1-4
  IC50: Not Active
[2]
  IC50: Not Active
[3]
  IC50: Not Active
  Ki: Not Active
[4]
  IC50: Not Active
Adenosine receptor A3
  IC50: Not Active
[5]
  IC50: Not Active
  Ki: Not Active
Vasopressin V1a receptor
  IC50: Not Active

## NC(=O)c1cnccn1 [PYRAZINAMIDE]
[1]; bti-tn-5b1-4
  IC50: Not Active
[2]
  IC50: Not Active
[3]
  IC50: Not Active
  Ki: Not Active
[4]
  IC50: Not Active
Adenosine receptor A3
  IC50: Not Active
[5]
  IC50: Not Active
  Ki: Not Active
Vasopressin V1a receptor
  IC50: Not Active

## OC(CCN1CCCCC1)(c1ccccc1)C1CCCCC1 (stereo unspecified) [TRIHEXYPHENIDYL]
[1]; bti-tn-5b1-4
  IC50: Not Active
[2]
  IC50: Not Active
[3]
  IC50: Not Active
  Ki: Not Active
[4]
  IC50: Not Active
Adenosine receptor A3
  IC50: Not Active
[5]
  IC50: Not Active
  Ki: Not Active
Vasopressin V1a receptor
  IC50: Not Active

## Cc1cc2cc3c(C)cc(=O)oc3c(C)c2o1 [TRIOXSALEN]
[1]; read-out: IC50
  IC50: 0.831 µM
[2]
  IC50: Not Active
[3]
  IC50: Not Active
  Ki: Not Active
[4]
  IC50: Not Active
Adenosine receptor A3
  IC50: Not Active
[5]
  IC50: Not Active
  Ki: Not Active
Vasopressin V1a receptor
  IC50: Not Active

## CCCC(CCC)C(=O)O [VALPROIC ACID]
[1]; bti-tn-5b1-4
  IC50: Not Active
[2]
  IC50: Not Active
[3]
  IC50: Not Active
  Ki: Not Active
[4]
  IC50: Not Active
Adenosine receptor A3
  IC50: Not Active
[5]
  IC50: Not Active
  Ki: Not Active
Vasopressin V1a receptor
  IC50: Not Active

## CCC1=C[C@@H]2CN(C1)Cc1c([nH]c3ccccc13)[C@@](C(=O)OC)(c1cc3c(cc1OC)N(C)[C@H]1[C@@](O)(C(=O)OC)[C@H](OC(C)=O)[C@]4(CC)C=CCN5CC[C@]31[C@@H]54)C2 [VINORELBINE]
[1]; bti-tn-5b1-4
  IC50: Not Active
[2]
  IC50: Not Active
[3]
  IC50: Not Active
  Ki: Not Active
[4]
  IC50: Not Active
Adenosine receptor A3
  IC50: Not Active
[5]
  IC50: Not Active
  Ki: Not Active
Vasopressin V1a receptor
  IC50: Not Active

## CADMIUM DICHLORIDE
[1]; bti-tn-5b1-4
  IC50: Not Active
  Ki: Not Active
[2]
  IC50: Not Active
  Ki: Not Active
[3]
  IC50: Not Active
  Ki: Not Active
[4]
  IC50: Not Active
  Ki: Not Active
Adenosine receptor A3
  IC50: Not Active
  Ki: Not Active
[5]
  IC50: Not Active
  Ki: Not Active
Vasopressin V1a receptor
  IC50: Not Active
  Ki: Not Active
